Source: patent US8268888B2, “Therapy of malignant neoplasias” (priority 2005, dated 2012)
Read-outs that look alike come from different tables or passages of the source.

Assays:
malignant cell lines = assay: Cell survival rate after treatment with 3/4-iodo-L-phenylalanine (cytotoxic/cytostatic effect); format: cell-based, human
Protocol: Five human glioma cell lines, one rat glioma cell line, two human prostate cancer cell lines, as well as one human breast cancer cell line, and a melanoma cell line were investigated. The human glioma cell lines Tx 3868 and T 5135 (from primary human glioblastoma multiforme), and the rat C6 glioma cells were provided by the Institute of Human Genetics, University of the Saarland (Homburg, Germany). The human high-grade glioma cells, designated as A1207, M059K and U373MG, the human prostate cancer cells PC3 and […], the pancreatic carcinoma cell line PanC1, the human breast cancer cell line MCF-07 (American Type Culture Collection, Rockville, Md.), and the pancreatic carcinoma cell line PaCa44 (established by Dr Bulow, Mainz, Germany) as well as the melanoma cell lines SK-MEL25 and A101D were purchased commercially or provided by the oncological research laboratory of the University Medical Center of Saarland (Homburg, Germany). […]
Human tumor cells grown on standard glass slides were fixed in 4% neutral buffered formalin and stained with the Giemsa method. The cell number was calculated in 10 consecutive high power fields (×40).

human tumor cells = assay: Internalisation (uptake) experiments in tumor cells; format: cell-based
Protocol: Uptake experiments were undertaken to evaluate the affinity of the proposed L-phenylalanine derivatives for the proposed human tumors, and to assess their therapeutic activity in vitro. All experiments were performed fourfold, simultaneously with 250000, 500000 and 10^6 freshly prepared human tumor cells, including human malignant glioma cells, pancreatic prostatic and breast cancer cells. Before experiments, subconfluent cells were trypsinized as described above. The suspension was mixed thoroughly, transferred to a 50-ml centrifuge tube (Falcon®, Becton Dickinson, USA). Cells were centrifuged for 5 min at 200×g; the resulting supernatant was removed and the pellet resuspended in serum-free Dulbecco's Mod Eagle medium and then transferred to Eppendorf tubes at concentrations of 10^6 cells/ml for the uptake investigations. Before incubation with the corresponding radiolabeled phenylalanine, the tumor cells were preincubated for 5 min in 500 μL medium at 37° C. in 1.5-ml Eppendorf centrifuge tubes. Aliquots of 30-50 μL (10^6−1.5×10^6 cpm) freshly prepared radiopharmaceutical were added and cells incubated at 37° C./5% CO2 for 1, 2, 5, 15, 30, 60, 90 and 120 min while shaking. Uptake was stopped with 500 μL ice-cold PBS (pH 7.4) and an additional 3-min in an ice bath, the cells were centrifuged for 2 min at 300×g, the supernatant removed and the pellet washed three time with ice-cold PBS. Cell pellets were counted for radioactivity together with 3 aliquots of standards on a Berthold LB951 counter. The percentage of binding of the radiopharmaceutical was calculated by the formula: (cpm cell pellet/mean cpm radioactive standards)×100. The results were expressed either as percent of the applied dose per 10^6 cells or as cpm/1000 cells for better comparison.

[1] = test system: human A1207 and T3868 glioblastoma xenografts; assay: Intracranial human glioma model in RNU rats (survival); format: in vivo; details: daily in first week then weekly, n=9
Protocol: An in vivo experiment was carried out in an intracranial human glioma model in RNU rats to assess the therapeutic effectiveness of 4-Iodo-L-phenylalanine (IPA) in glioma.
Primary human A1207 and T3868 glioblastoma cells (0.5×10^6 cells) were stereotaxically implanted into the right frontal region of RNU rats (2 mm posterior and 2 mm lateral to the intersection of the sagittal and bregma sutures to a depth of 5 mm) while under chloralhydrate anesthesia. The craniectomy was resealed with bone wax and the scalp closed.
IPA (1 and 5 mg/kg b.w.) was administrated i.p. in rats bearing human glioblastoma xenografts (n=9 in each group), starting at day 1 after stereotaxic implantation.
IPA was administrated daily in the first week after implantation and weekly afterwards. Another six RNU rats were treated with saline and served as control.
Then the following parameters were compared: median survival time, tumor size and histology after biopsy.

[2] = test system: human Tx3868 glioblastoma cells; assay: Radiosensitizing effect: IPA combined with external irradiation in glioblastoma cells; format: cell-based; details: for radiosensitizer effect: concomitantly administered therapeutic radiation
Protocol: Five human glioma cell lines, one rat glioma cell line, two human prostate cancer cell lines, as well as one human breast cancer cell line, and a melanoma cell line were investigated. The human glioma cell lines Tx 3868 and T 5135 (from primary human glioblastoma multiforme), and the rat C6 glioma cells were provided by the Institute of Human Genetics, University of the Saarland (Homburg, Germany). The human high-grade glioma cells, designated as A1207, M059K and U373MG, the human prostate cancer cells PC3 and […], the pancreatic carcinoma cell line PanC1, the human breast cancer cell line MCF-07 (American Type Culture Collection, Rockville, Md.), and the pancreatic carcinoma cell line PaCa44 (established by Dr Bulow, Mainz, Germany) as well as the melanoma cell lines SK-MEL25 and A101D were purchased commercially or provided by the oncological research laboratory of the University Medical Center of Saarland (Homburg, Germany). Cells were cultivated in RPMI-1640 medium or in Dulbecco's modified Eagle medium (sodium pyruvate-free, supplemented with […] and pyridoxine), respectively, supplemented with 10% (v/v) heat-inactivated foetal calf serum (FCS), penicillin (50 U/ml), streptomycin (50 μg/ml), and insulin (50 μg/ml; PromoCell, Heidelberg, Germany). All cell lines were maintained in appropriate flasks in a humidified incubator (5% CO2) at 37° C. Before the experiment, subconfluent cell cultures were trypsinized with a solution of 0.05% trypsin containing 0.02% EDTA but without Ca^2+ and Mg^2+, and resuspended in fresh medium to various cell concentrations after counting by vital staining on a hemocytometer, depending upon the study. Cells were free of mycoplasms. Viability of the cells was >95%.
Evaluation of the cell survival rate after treatment with 3/4-iodo-L-phenylalanine. After development of a confluent lawn of cells, the cultures were exposed to 0.1-5 μmol/ml of the corresponding pharmaceutical for up to 48 hours at 37° C./5% CO2. In a parallel experiment, cells were irradiated using a 6-MeV linear accelerator with doses from 2 to 15 Gy or treated with IPA-131 for comparison of cell survival rate. In order to be able to observe the morphology of the glioma cells, the cells were grown on standard glass slides or in standard culture dishes. Then the medium was removed and the cells were fixed either in 70% ethanol for at least 30 min on ice for flow-cytometric analyses after staining or in 4% neutral buffered formalin for immunohistopathological analyse.

[3] = rats, cited from earlier work
[4] = Acute toxicity (LD50/LD10) in rats; details: i.p. injection
malignant gliomas = details: cited from earlier work
[5] = rat, in vivo; cited from earlier work

In the case of N[C@@H](Cc1ccccc1I)C(=O)O [2-iodo-L-phenylalanine, reference compound], the “cytotoxicity in neoplastic cells” value (malignant cell lines; compared with IPA and IMA) is reported as “moderate cytotoxity” and the “uptake in neoplastic cells” value (human tumor cells; compared with IPA and IMA) is reported as “low uptake”.

In the case of N[C@@H](Cc1ccc(I)cc1)C(=O)O [IPA, 4-iodo-L-phenylalanine], the “cytostatic effect on primary human glioblastoma cells” value (malignant cell lines; FIG. 4, compared with external irradiation) is reported as “concentration dependent and more pronounced as compared to external irradiation up to 15 Gy”, the “uptake in human tumor cells” value (human tumor cells; quantified with 4-[123I]iodo-L-phenylalanine, up to 120 min, FIGS. 1-3) is reported as “high uptake” and the “concentration up to which transport capacity did not show saturation” value (human tumor cells; tumor cells) is reported as over 200 µmol/L. For the same compound, the “rats still alive at day 28” value ([1]; IPA 1 mg/kg i.p.) was “six out of nine”, the “rats still alive at day 28” value ([1]; IPA 5 mg/kg i.p.) was “seven out of nine” and the induction of necrosis/apoptosis ([2]; 0.3 μmol/ml IPA with 10 Gy external radiation, FIG. 7b) was “increased induction of necrosis and additional induction of apoptosis”. The radiosensitizer effect [2] was “significant intrinsic radiosensitizer effect”, the “cell survival rate on combining with external irradiation” value ([2]; glioma cells, FIGS. 4-6) was “dramatic reduction of cell survival rate” and the LD50 ([3]; route not stated) was over 100 mg/kg. It also gave an LD10 [4] of over 27 mg/kg.

For N[C@@H](Cc1ccc([123I])cc1)C(=O)O [IPA-123, 4-[^123I]iodo-L-phenylalanine], the blood-brain barrier passage (malignant gliomas; after intravenous administration) is listed as “crosses” and the “enrichment in certain tumors (factor)” value (malignant gliomas; certain tumors) is listed as at least 20.

For N[C@@H](Cc1cccc(I)c1)C(=O)O [3-iodo-L-phenylalanine], the radiosensitizer effect [2] was “significant intrinsic radiosensitizer effect”.

For N[C@@H](Cc1ccc(Cl)cc1)C(=O)O (racemic) [p-chloro-phenylalanine], the “effect on growth of developing rats” value [5] is given as “interferes with the growth of developing rats”.

For N[C@@H](Cc1ccccc1)C(=O)O [L-phenylalanine, reference compound], the LD50 ([3]; i.p. injection, according to the manufacturer) is given as 5280 mg/kg.
